Results as given in paper PMC12903969, “Discovery of a Novel and Potent Kir4.1 Inhibitor as a Safe and Rapid‐Onset Antidepressant Agent in Mice” (Advanced Science, 2025).
Read-outs that look alike come from different tables or passages of the source.

Tests used:
[1] = test system: primary cortical astrocytes (native Kir4.1 channels); assay: Patch clamp of primary cultured WT astrocytes (native Kir4.1); assay type: cell-based, mouse; conditions: JX3212 3 µM; BaCl2 100 µM
Description: Astrocytes were isolated and cultured as previously described.^[ [16] ^] Briefly, the cortices from P1‐P4 mouse pups were dissected and incubated for 25 min in Hank's Balanced Salt Solution (22.5 ml) with 2.5% trypsin (2.5 ml) at 37 °C. Cells were dissociated in cultured medium (DMEM/F12 supplemented with 10% fetal bovine serum and 1% penicillin and streptomycin) and filtered with a 70‐µm cell strainer. Cell suspensions were cultured in PDL‐pretreated 75‐cm^2 flasks for the initial seven days, with half of the medium replaced every 2 days. Subsequently, the cultures were shaken at 220 rpm for 6 h at 37 °C to remove microglia and oligodendrocytes from the astrocyte layers. The astrocytes were harvested, reseeded in two new flasks, and cultured in an incubator for 14 days. For Kir4.1 deletion in cell cultures, 4‐OH tamoxifen (final concentration: 1 µM, Felixbio) was added into Kir4.1^flox/flox: Aldh1l1‐Cre/ERT2 cortical cultures at DIV 2 and DIV 4, respectively, and completely removed at DIV7 when astrocytes were reseeded in fresh culture medium.
(§1) Whole‐cell patch‐clamp recordings were obtained either in transiently transfected CHO‐K1 cells or in primary cultured astrocytes at room temperature using standard patch‐clamp techniques with an Axopatch‐700B amplifier (Axon Instruments). The signals were filtered at 2 kHz and sampled at 20 kHz using the Digidata 1440A interface (Axon Instruments). The resistance of borosilicate glass pipettes was typically 2–4 MΩ when filled with the internal solution. Drug application was facilitated using a BPS perfusion system (ALA Scientific Instruments). Macroscopic currents generated by expressed potassium channels were recorded under the voltage‐clamp conditions with an internal pipette solution composed of (in mM): 140 KCl, 5 NaCl, 1 CaCl2, 1 MgCl2, 10 HEPES, and 10 EGTA, pH 7.2 adjusted with KOH. The external solution contained (in mM): 140 NaCl, 5 KCl, 2 CaCl2, 1 MgCl2, 10 glucose, and 10 HEPES, pH 7.4 adjusted with NaOH. Currents were elicited with a hyperpolarized voltage at −120 mV from the holding potential of −80 mV, followed by a ramp voltage depolarizing to +50 mV. Astrocytic resting membrane potentials were recorded under current‐clamp conditions (I = 0 pA) using standard internal and external solutions, determined immediately after achieving whole‐cell mode.

[2] = test system: MDA-MB-468 breast cancer cells; assay: Cytotoxicity test (CCK-8); assay type: cell-based; conditions: read-out: IC50 ± SD (μM) for MDA-MB-468 Inhibition
Description: Cytotoxicity of all the tested compounds was determined using the cell counting kit‐8 (CCK‐8) assay kit (Beyotime, Shanghai, China). Briefly, MDA‐MB‐468 was cultured in L15 medium and plated in 96‐well plates at a density of 12,000 cells per well for 24 h at 37 °C in a 5% CO2 incubator. The tested compounds were dissolved in DMSO and diluted with culture medium (DMSO final concentration < 0.4%). Then the cells were treated with compounds (0.41, 1.23, 3.70, 11.11, 33.33, 100.00 µM) for 48 h. After treatments, removal of the supernatant liquor, 100 µL of new media diluted CCK‐8 solution (10% CCK‐8) was added into each well and incubated at 37 °C for 2 h. The absorbance of the mixture was directly measured at 450 nm. The results are presented as a percentage of the control.

[3] = target: T1, Kir4.1 (Homo sapiens, UniProt P78508); assay: Whole-cell patch clamp, Kir4.1 currents in transfected CHO-K1 cells; assay type: cell-based; conditions: for inhibition at 1 µM: CHO-K1, 1 μM; for inhibition at 10 µM: CHO-K1, 10 μM; for inhibition at 0.5 µM: CHO-K1, 0.5 μM
T1 construct: host or cells: CHO-K1
T1 sequence (P78508 1-379): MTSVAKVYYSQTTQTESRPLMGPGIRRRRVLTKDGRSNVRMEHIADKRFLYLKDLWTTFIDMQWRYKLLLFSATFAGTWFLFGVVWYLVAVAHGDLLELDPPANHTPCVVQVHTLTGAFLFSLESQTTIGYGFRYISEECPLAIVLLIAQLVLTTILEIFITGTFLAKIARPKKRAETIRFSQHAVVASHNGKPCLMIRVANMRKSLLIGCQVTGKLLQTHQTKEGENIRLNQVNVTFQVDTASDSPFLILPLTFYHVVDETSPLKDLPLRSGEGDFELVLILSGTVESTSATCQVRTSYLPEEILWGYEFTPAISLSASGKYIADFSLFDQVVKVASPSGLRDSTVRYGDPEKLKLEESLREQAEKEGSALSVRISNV
Description: Plasmids encoding WT human potassium channels Kir1.1, Kir2.1, Kir2.2, Kir4.1, and Kir4.2 were obtained from the Beijing Genomics Institute. All point mutations were constructed using the QuickChange II Site‐Directed Mutagenesis Kit (Stratagene) and subsequently verified by sequencing.
CHO‐K1 cells were maintained in DMEM/F12 growth medium containing 10% fetal bovine serum. Plasmids encoding the target genes (3600 ng) and enhanced green fluorescent protein (400 ng) were cotransfected into cells using Lipofectamine 2000 (Invitrogen) in accordance with the manufacturer's instructions. Cells were seeded onto poly‐d‐lysine (PDL)‐coated glass coverslips 1 h prior to electrophysiological recordings. All cells were cultured under standard conditions of 5% CO2 at 37 °C.
as §1

[4] = Homo sapiens, MDA-MB-468, MDA-MB-468 breast cancer cells
[5] = +50 mV, read-out: Kir4.1 Inhibition ± SD (%) at 1 μM, +50 mV
[6] = -120 mV, read-out: Kir4.1 Inhibition ± SD (%) at 1 μM, -120 mV
[7] = +50 mV, read-out: Kir4.1 Inhibition ± SD (%) at 10 μM, +50 mV
[8] = -120 mV, read-out: Kir4.1 Inhibition ± SD (%) at 10 μM, -120 mV
[9] = +50 mV, read-out: Kir4.1 Inhibition ± SD (%) at 0.5 μM, +50 mV
[10] = -120 mV, read-out: Kir4.1 Inhibition ± SD (%) at 0.5 μM, -120 mV

Compound	inhibition at 1 µM [3, 5] [%]	inhibition at 1 µM [3, 6] [%]	inhibition at 10 µM [3, 7] [%]	inhibition at 10 µM [3, 8] [%]	Kir4.1 Inhibition ± SD (%) at 1 μM, +50 mV ([3]; +50 mV) [%]	Kir4.1 Inhibition ± SD (%) at 1 μM, -120 mV ([3]; -120 mV) [%]	Kir4.1 Inhibition ± SD (%) at 10 μM, +50 mV ([3]; +50 mV) [%]	Kir4.1 Inhibition ± SD (%) at 10 μM, -120 mV ([3]; -120 mV) [%]	inhibition at 0.5 µM [3, 9] [%]	inhibition at 0.5 µM [3, 10] [%]	astrocytic resting membrane potential (in words) [1]	IC50 [2, 4] [µM]	IC50 ([2]; MDA-MB-468 breast cancer cells) [µM]
[Ba+2].[Cl-].[Cl-] [BaCl2, reference compound]	–	–	–	–	–	–	–	–	–	–	marked depolarization	–	–
c1ccc2c3c([nH]c2c1)CCC(Nc1ccnc(NCCCN2CCOCC2)n1)C3 (stereo not drawn) [JX3213, N^2-(3-morpholinopropyl)-N^4-(2,3,4,9-tetrahydro-1H-carbazol-3-yl)pyrimidine-2,4-diamine]	55 ± 3.87	41.2 ± 4.03	79.1 ± 3.7	65.1 ± 4.67	–	–	–	–	–	–	–	17.7 ± 3.05	–
N^4-(1H-indol-5-yl)-N^2-(3-morpholinopropyl)pyrimidine-2,4-diamine [JX3207]	–	–	–	–	30.53 ± 6.87	27.52 ± 8.17	93.00 ± 1.73	92.47 ± 0.40	–	–	–	–	12.3 ± 1.32
c1ccc2c(c1)oc1ccc(Nc3ccnc(NCCCN4CCOCC4)c3)cc12 [JX3219, N^4-(dibenzo[b,d]furan-2-yl)-N^2-(3-morpholinopropyl)pyridine-2,4-diamine]	86.1 ± 3.36	78.7 ± 8.16	97.44 ± 0.6	92.6 ± 5.66	–	–	–	–	49.6 ± 6.47	40.2 ± 4.35	–	8.74 ± 0.36	–
CC1(C)c2ccccc2-c2cc(Nc3ccnc(NCCCN4CCOCC4)n3)ccc21 [JX3210, N^4-(9,9-dimethyl-9H-fluoren-3-yl)-N^2-(3-morpholinopropyl)pyrimidine-2,4-diamine]	62 ± 4.2	42.7 ± 2.34	93.2 ± 3.42	98.69 ± 0.66	–	–	–	–	–	–	–	2.66 ± 0.51	–
C1=Nc2ccccc2Oc2ccc(Nc3ccnc(NCCCN4CCOCC4)n3)cc21 [JX3214, N^4-(dibenzo[b,f][1,4]oxazepin-2-yl)-N^2-(3-morpholinopropyl)pyrimidine-2,4-diamine]	60.4 ± 6.32	56.6 ± 3.9	93.6 ± 4.14	94.52 ± 0.7	–	–	–	–	–	–	–	4.64 ± 0.41	–
c1ccc2c(c1)oc1ccc(Nc3cnc(NCCCN4CCOCC4)cn3)cc12 [JX3225, N^2-(dibenzo[b,d]furan-2-yl)-N^5-(3-morpholinopropyl)pyrazine-2,5-diamine]	3.73 ± 5.09	8.36 ± 3.94	96.9 ± 1.28	94.3 ± 2.6	–	–	–	–	–	–	–	31.6 ± 5.27	–
c1cc(Nc2ccc3[nH]ccc3c2)nc(NCCCN2CCOCC2)n1 [JX3206, N^4-(1H-indol-5-yl)-N^2-(3-morpholinopropyl)pyrimidine-2,4-diamine]	–	–	38.4 ± 5.37	25.9 ± 1.96	–	–	–	–	–	–	–	> 50	–
c1ccc2c(c1)oc1ccc(Nc3cncc(NCCCN4CCOCC4)c3)cc12 [JX3221, N^3-(dibenzo[b,d]furan-2-yl)-N^5-(3-morpholinopropyl)pyridine-3,5-diamine]	-2.41 ± 3.2	-4.84 ± 3.28	96.6 ± 1.14	90.4 ± 5.72	–	–	–	–	–	–	–	21.2 ± 1.06	–
c1ccc(Nc2ccnc(NCCCN3CCOCC3)n2)cc1 [JX3204, N^2-(3-morpholinopropyl)-N^4-phenylpyrimidine-2,4-diamine]	–	–	5.73 ± 2.33	0.47 ± 2.29	–	–	–	–	–	–	–	> 50	–

Now from value to compound, other results behind:

inhibition at 1 µM [3, 5] [%]	inhibition at 1 µM [3, 6] [%]	inhibition at 10 µM [3, 7] [%]	inhibition at 10 µM [3, 8] [%]	Kir4.1 Inhibition ± SD (%) at 1 μM, +50 mV ([3]; +50 mV) [%]	Kir4.1 Inhibition ± SD (%) at 1 μM, -120 mV ([3]; -120 mV) [%]	Kir4.1 Inhibition ± SD (%) at 10 μM, +50 mV ([3]; +50 mV) [%]	Kir4.1 Inhibition ± SD (%) at 10 μM, -120 mV ([3]; -120 mV) [%]	inhibition at 0.5 µM [3, 9] [%]	inhibition at 0.5 µM [3, 10] [%]	Compound	astrocytic resting membrane potential (in words) [1]	IC50 [2, 4] [µM]	IC50 ([2]; MDA-MB-468 breast cancer cells) [µM]
11.2 ± 5.26	5.91 ± 6.31	94.83 ± 0.75	88.4 ± 2.42	–	–	–	–	–	–	OC(CNc1nccc(Nc2ccc3oc4ccccc4c3c2)n1)CN1CCOCC1 (stereo not drawn) [JX3234, 1-((4-(dibenzo[b,d]furan-2-ylamino)pyrimidin-2-yl)amino)-3-morpholinopropan-2-ol]	–	17.1 ± 0.83	–
-0.93 ± 7.76	-3.38 ± 9.3	97.5 ± 1.92	94.2 ± 1.77	–	–	–	–	–	–	C[C@@H]1CN(CCCNc2nccc(Nc3ccc4oc5ccccc5c4c3)n2)C[C@H](C)O1 [JX3242, N^4-(dibenzo[b,d]furan-2-yl)-N^2-(3-((2S,6R)-2,6-dimethylmorpholino)propyl)pyrimidine-2,4-diamine]	–	5.38 ± 0.11	–
–	–	–	–	9.02 ± 5.70	7.11 ± 1.17	88.04 ± 4.11	64.42 ± 3.05	–	–	c1ccc2c(c1)oc1ccc(NC34C[C@@H]5C[C@@H](CC(NCCCN6CCOCC6)(C5)C3)C4)cc12 [JX3227, (1s,3r,5R,7S)-N^1-(dibenzo[b,d]furan-2-yl)-N^3-(3-morpholinopropyl)adamantane-1,3-diamine]	–	–	> 50
92.4 ± 1.44	82.2 ± 2.24	98.49 ± 0.04	94.9 ± 1.88	–	–	–	–	56 ± 5.59	46.4 ± 8.18	c1ccc2c(c1)oc1ccc(Nc3ccnc(NCCCN4CCCCCC4)n3)cc12 [JX3249, N^2-(3-(azepan-1-yl)propyl)-N^4-(dibenzo[b,d]furan-2-yl)pyrimidine-2,4-diamine]	–	5.1 ± 0.21	–
